The values below are quoted from earlier work in patent US11122797B2, “Pest repellent material” (JGC CATALYSTS AND CHEMICALS LTD., priority 2017, dated 2021).

The conditions of this data set: within 6 hours.

For the molecule `CCN(CC)C(=O)c1cccc(C)c1` [DEET, N, N-diethyl-m-toluamide], the “DEET applied to the skin transdermally absorbed” value is listed as “about 50%”.
